Non-standard residues stand in square brackets, D forms with d. Residues, ends and D or L forms follow the SMILES beside them. Sar = CNCC(=O)O
Assays:
[1] = system: prothymocytes; test: induction in vitro of Thy-1+ T cell differentiation (Komuro and Boyse), acquisition of Thy-1.2 as marker; format: cell-based, nu/nu mice; details: for biological activity compared with the pentapeptide prepared in Example I: qualitative statement
Protocol: (§1) To determine the activity and characteristics of the polypeptide of Example I, determinations were carried out on healthy 5-6 week nu/nu mice of both sexes, the mice being bred on a BALB/c background (thymocytes expressing Thy-1.2 surface antigen) and maintained under conventional conditions. For the antisera, anti Thy-1.2 sera were prepared in Thy-1 congenic mice.
(§2) For the induction in vitro of Thy-1^+ T cells or CR^+ B cell differentiation, the induction of thymocyte differentiation from prothymocytes in vitro was performed as described by Komuro and Boyse, (Lancet, 1, 740, 1973), using the acquisition of Thy-1.2 as a marker of T cell differentation. The induction of CR^+ B cell differentiation from CR^- B cell precursors in vitro was performed under similar conditions using as the assay criterion, the capacity of CR^+ B cells to bind sheep erythrocytes coated with subagglutinating quantities of rabbit antibody and nonlytic complement. Spleen cell populations from healthy nu/nu mice fractionated on discontinuous bovine serum albumin gradients were used as the source of both precursor types (Thy-1^- and CR^-) because they have few or no Thy-1^+ cells and low numbers of CR^+ cells.

[2] = system: CR^- B cell precursors; test: induction in vitro of CR+ B cell differentiation from CR- B cell precursors; format: cell-based, nu/nu mice; details: same concentrations as for T cell induction
Protocol: as §1, §2

SMILES	biological activity compared with the pentapeptide prepared in Example I [1]	concentration at which peptide is active ([1]; assay of Example II)	induction of differentiation of CR+ B cells [2]
CC(C)[C@H](NC(=O)[C@H](CC(=O)O)NC(=O)[C@@H](C)NC(=O)[C@@H](N)CCCNC(=N)N)C(=O)N[C@@H](Cc1ccc(O)cc1)C(=O)O [III, H--ARG--D--ALA--ASP--VAL--TYR--OH] (H-R[dA]DVY-OH)	same biological activity	–	–
CN(CC(=O)N[C@@H](Cc1ccc(O)cc1)C(=O)O)C(=O)[C@H](CC(=O)O)NC(=O)[C@H](CCCCN)NC(=O)[C@@H](N)CCCNC(=N)N [Example IVC, H--ARG--LYS--ASP--SAR--TYR--OH] (H-RKD[Sar]Y-OH)	same biological activity	–	–
CN(CC(=O)N[C@@H](Cc1ccc(O)cc1)C(N)=O)C(=O)[C@H](CC(=O)O)NC(=O)CN(C)C(=O)[C@@H](N)CCCNC(=N)N [IVB, H--ARG--SAR--ASP--SAR--TYR--NH2] (H-R[Sar]D[Sar]Y-NH2)	same biological activity	0.1 pg/mL	–
CC(C)[C@H](NC(=O)[C@H](CC(=O)O)NC(=O)CN(C)C(=O)[C@@H](N)CCCNC(=N)N)C(=O)N[C@@H](Cc1ccc(O)cc1)C(=O)O [Example I, H--ARG--SAR--ASP--VAL--TYR--OH] (H-R[Sar]DVY-OH)	–	–	did not induce
CN(CC(=O)N[C@@H](Cc1ccc(O)cc1)C(=O)O)C(=O)[C@H](CC(=O)O)NC(=O)CN(C)C(=O)[C@@H](N)CCCNC(=N)N [IVA, H--ARG--SAR--ASP--SAR--TYR--OH] (H-R[Sar]D[Sar]Y-OH)	same biological activity	–	–

Source: US4397842A, “Peptides having thymopoietin-like activity” (Ortho Pharmaceutical Corporation, priority 1981, dated 1983)
